Experimental data published in patent EP4512427A1, “ANTIBODY-DRUG CONJUGATES BASED ON MOLECULAR GLUE DEGRADERS AND USES THEREOF” (Mablink Bioscience, priority 2023, dated 2025).
“Also recorded” adds a separate entry of the source.

What was measured:
[1] = system: BT-474; assay: In vitro cytotoxicity assay (MTT); type: cell-based, human; details: Homo sapiens, BT-474, 144 h
Method in brief: (§1)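 Viability of each human cancer line is measured by MTT reduction after six-day continuous compound treatment at 37°C. IC50 derives from inhibition curve fitting relative to untreated cells.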

[2] = system: JIMT-1; assay: In vitro cytotoxicity assay (MTT); type: cell-based, human; details: Homo sapiens, 144 h, 6 days incubation
Method in brief: as §1

[3] = system: MDA-MB-231; assay: In vitro cytotoxicity assay (MTT); type: cell-based, human; details: Homo sapiens, 144 h, 6 days incubation
Method in brief: as §1

[4] = system: MDA-MB-453; assay: In vitro cytotoxicity assay (MTT); type: cell-based, human; details: Homo sapiens, 144 h, 6 days incubation
Method in brief: as §1

[5] = system: NCI-N87; assay: In vitro cytotoxicity assay (MTT); type: cell-based, human; details: Homo sapiens, 144 h, 6 days incubation
Method in brief: as §1

[6] = system: SKBR-3; assay: In vitro cytotoxicity assay (MTT); type: cell-based, human; details: Homo sapiens, SK-BR-3, 144 h, 6 days incubation
Method in brief: as §1

[7] = system: A549; assay: In vitro cytotoxicity assay (MTT); type: cell-based; details: Homo sapiens, 144 h, 6 days incubation
Method in brief: as §1

[8] = system: BXPC3; assay: In vitro cytotoxicity assay (MTT); type: cell-based; details: Homo sapiens, BXPC-3, 144 h, 6 days incubation
Method in brief: as §1

[9] = system: Caco-2; assay: In vitro cytotoxicity assay (MTT); type: cell-based; details: Homo sapiens, 144 h, 6 days incubation
Method in brief: as §1

[10] = system: HCT-116; assay: In vitro cytotoxicity assay (MTT); type: cell-based; details: Homo sapiens, 144 h, 6 days incubation
Method in brief: as §1

[11] = system: HT-29; assay: In vitro cytotoxicity assay (MTT); type: cell-based; details: Homo sapiens, 144 h, 6 days incubation
Method in brief: as §1

[12] = system: KB-1; assay: In vitro cytotoxicity assay (MTT); type: cell-based; details: Homo sapiens, KB16, 144 h, 6 days incubation
Method in brief: as §1

[13] = system: MCF-7; assay: In vitro cytotoxicity assay (MTT); type: cell-based; details: Homo sapiens, MCF7, 144 h, 6 days incubation
Method in brief: as §1

[14] = system: OE-19; assay: In vitro cytotoxicity assay (MTT); type: cell-based; details: Homo sapiens, OE19, 144 h, 6 days incubation
Method in brief: as §1

[15] = system: cancerous human cell lines; assay: In vitro cytotoxicity assay (MTT), side-by-side comparisons over the cell line panel; type: cell-based; details: side-by-side comparison (Figures 1-3, Table 3), result in words
Procedure: In vitro cytotoxicity of compounds of the disclosure was assessed on several cancerous human cell lines. Cells were plated in 96-well plates at an appropriate density depending on the cell line (between 1000 and 10 000 cells/well in 100µL of appropriate culture media) and incubated at 37°C for 24 hours. Serial dilutions of the tested compound previously dissolved in culture media (50µL) were added, and incubation was carried at 37°C out for 6 days. MTT (5mg/mL in PBS, 20µL, Sigma-Aldrich) was added into the wells, and incubation was continued for 1 to 4 hours at 37°C. Culture media was then carefully removed, and well content was homogeneously dissolved with acidified isopropanol. Absorbance values were measured on a microplate reader using a wavelength of 570 nm (with a reference wavelength of 690 nm). The IC50 concentration values compared to untreated control cells were determined using inhibition dose response curve fitting (GraphPad Prism 9). Exatecan mesylate (cat#HY-13631A) and CR8 (CAS# 294646-77-8; cat#HY-18340) were purchased from MedChemExpress (China).

[16] = target: T1, CDK12/CycK (Homo sapiens, UniProt Q9NYV4); assay: IC50 profiling on top 25 protein kinases; type: biochemical; details: titration from 0.1 nM to 10 000 nM
T1 construct: GST-fusion or His-tag (not given for this kinase); purchased Reaction Biology, Germany; host or cells: Sf9 insect cells or E.coli
T1 sequence (Q9NYV4 whole entry, the tested form may be a part): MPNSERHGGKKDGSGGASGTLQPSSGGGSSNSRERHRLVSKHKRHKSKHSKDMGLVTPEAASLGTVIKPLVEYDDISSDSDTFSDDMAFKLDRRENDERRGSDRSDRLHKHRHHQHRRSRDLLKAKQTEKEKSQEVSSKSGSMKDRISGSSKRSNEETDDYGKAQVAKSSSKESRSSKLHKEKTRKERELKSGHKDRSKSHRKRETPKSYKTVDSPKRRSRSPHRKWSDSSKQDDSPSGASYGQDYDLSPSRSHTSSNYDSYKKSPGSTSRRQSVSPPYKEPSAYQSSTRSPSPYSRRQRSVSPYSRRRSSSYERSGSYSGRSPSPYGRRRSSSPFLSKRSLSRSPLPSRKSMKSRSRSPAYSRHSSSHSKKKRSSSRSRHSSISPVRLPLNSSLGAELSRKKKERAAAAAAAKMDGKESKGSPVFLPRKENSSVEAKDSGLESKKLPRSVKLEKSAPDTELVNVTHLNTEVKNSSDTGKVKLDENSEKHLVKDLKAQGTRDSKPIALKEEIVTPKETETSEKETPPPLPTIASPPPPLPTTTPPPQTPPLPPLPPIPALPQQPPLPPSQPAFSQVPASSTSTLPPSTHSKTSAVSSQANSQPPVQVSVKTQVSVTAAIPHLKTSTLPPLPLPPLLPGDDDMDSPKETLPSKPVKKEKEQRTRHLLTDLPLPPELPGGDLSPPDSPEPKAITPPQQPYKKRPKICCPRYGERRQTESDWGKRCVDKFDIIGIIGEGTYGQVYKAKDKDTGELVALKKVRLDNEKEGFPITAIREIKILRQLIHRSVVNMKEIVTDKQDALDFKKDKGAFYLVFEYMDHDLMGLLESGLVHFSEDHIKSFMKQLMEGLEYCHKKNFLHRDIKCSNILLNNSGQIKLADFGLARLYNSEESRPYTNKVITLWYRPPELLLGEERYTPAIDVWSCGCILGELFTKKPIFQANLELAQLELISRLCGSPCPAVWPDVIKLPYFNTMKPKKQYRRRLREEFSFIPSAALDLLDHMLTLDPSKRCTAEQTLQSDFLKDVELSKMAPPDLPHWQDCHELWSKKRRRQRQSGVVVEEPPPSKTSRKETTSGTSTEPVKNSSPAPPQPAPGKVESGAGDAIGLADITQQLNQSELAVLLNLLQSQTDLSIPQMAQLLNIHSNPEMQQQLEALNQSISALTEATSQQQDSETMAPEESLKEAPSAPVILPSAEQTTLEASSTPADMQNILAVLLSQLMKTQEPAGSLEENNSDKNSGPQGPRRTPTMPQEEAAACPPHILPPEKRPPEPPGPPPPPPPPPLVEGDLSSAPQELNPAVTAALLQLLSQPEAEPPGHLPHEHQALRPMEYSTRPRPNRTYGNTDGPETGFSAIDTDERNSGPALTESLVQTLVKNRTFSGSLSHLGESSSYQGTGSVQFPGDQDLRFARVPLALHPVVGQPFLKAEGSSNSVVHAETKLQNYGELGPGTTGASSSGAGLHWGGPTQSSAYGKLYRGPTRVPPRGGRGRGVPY
T1 sequence (O75909 whole entry partner, the tested form may be a part): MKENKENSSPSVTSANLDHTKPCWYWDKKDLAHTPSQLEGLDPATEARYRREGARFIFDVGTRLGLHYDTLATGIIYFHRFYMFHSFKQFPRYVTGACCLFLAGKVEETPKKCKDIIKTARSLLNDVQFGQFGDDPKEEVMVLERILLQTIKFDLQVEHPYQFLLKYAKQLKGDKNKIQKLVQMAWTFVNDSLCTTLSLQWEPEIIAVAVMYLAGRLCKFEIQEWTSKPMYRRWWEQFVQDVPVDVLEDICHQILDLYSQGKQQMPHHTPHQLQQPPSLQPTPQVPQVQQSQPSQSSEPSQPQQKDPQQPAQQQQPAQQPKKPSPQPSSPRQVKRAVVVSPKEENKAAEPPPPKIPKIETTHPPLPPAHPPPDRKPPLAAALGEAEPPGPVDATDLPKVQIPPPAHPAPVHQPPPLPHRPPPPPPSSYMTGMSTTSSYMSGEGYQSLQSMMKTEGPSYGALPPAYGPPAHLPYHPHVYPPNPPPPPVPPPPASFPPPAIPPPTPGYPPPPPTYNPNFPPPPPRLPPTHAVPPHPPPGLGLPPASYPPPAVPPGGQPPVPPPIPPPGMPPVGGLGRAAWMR
Procedure: (§2) Compound 2384 according to the disclosure was subjected to kinase screening assays (performed at Reaction Biology, Germany). […] A radiometric protein kinase assay (33PanQinase® ActivityAssay) was used for measuring the kinase activity of 340 protein kinases. All kinase assays were performed in 96-well FlashPlates™ from Perkin Elmer (Boston, MA, USA) in a 50 µL reaction volume. […] All PKC assays (except the PKC-mu and the PKC-nu assay) additionally contained 1 mM CaCl2, 4 mM EDTA, 5 µg/m! Phosphatidylserine and 1 µg/m! 1,2-Dioleyl-glycerol. The CAMK1D, CAMK2A, CAMK2B, CAMK2D, CAMK2G, CAMK4, CAMKK1, CAMKK2, DAPK2, EEF2K, MYLK, MYLK2 and MYLK3 assays additionally contained 1 µg/ml Calmodulin and 0.5 mM CaCl2. The PRKG1 and PRKG2 assays additionally contained 1 µM cGMP. The DNA-PK assay additionally contained 2.5 µg/ml DNA. The protein kinase reaction cocktails were incubated at 30°C for 60 minutes. The reaction was stopped with 50 µl of 2 % (v/v) H3PO4, plates were aspirated and washed two times with 200 µL 0.9 % (w/v) NaCl. Incorporation of 33Pi (counting of "cpm") was determined with a microplate scintillation counter (Microbeta, Wallac). All protein kinase assays were performed with a BeckmanCoulter Biomek 2000/SL robotic system. All protein kinases provided by RBE were expressed in Sf9 insect cells or in E.coli as recombinant GST-fusion proteins or His-tagged proteins, either as full-length or enzymatically active fragments. All kinases were produced from human cDNAs and purified by either GSH-affinity chromatography or immobilized metal. Affinity tags were removed from a number of kinases during purification. The purity of the protein kinases was examined by SDS-PAGE/Coomassie staining, the identity was checked by mass spectroscopy. Kinases from external vendors were expressed, purified and quality-controlled. Staurosporine was used as positive control.
(§3) Staurosporine was used as positive control.

[17] = target: T2, CDK13/CycK (Homo sapiens, UniProt Q14004); assay: IC50 profiling on top 25 protein kinases; type: biochemical; details: titration from 0.1 nM to 10 000 nM
T2 construct: GST-fusion or His-tag (not given for this kinase); purchased Reaction Biology, Germany; host or cells: Sf9 insect cells or E.coli
T2 sequence (Q14004 whole entry, the tested form may be a part): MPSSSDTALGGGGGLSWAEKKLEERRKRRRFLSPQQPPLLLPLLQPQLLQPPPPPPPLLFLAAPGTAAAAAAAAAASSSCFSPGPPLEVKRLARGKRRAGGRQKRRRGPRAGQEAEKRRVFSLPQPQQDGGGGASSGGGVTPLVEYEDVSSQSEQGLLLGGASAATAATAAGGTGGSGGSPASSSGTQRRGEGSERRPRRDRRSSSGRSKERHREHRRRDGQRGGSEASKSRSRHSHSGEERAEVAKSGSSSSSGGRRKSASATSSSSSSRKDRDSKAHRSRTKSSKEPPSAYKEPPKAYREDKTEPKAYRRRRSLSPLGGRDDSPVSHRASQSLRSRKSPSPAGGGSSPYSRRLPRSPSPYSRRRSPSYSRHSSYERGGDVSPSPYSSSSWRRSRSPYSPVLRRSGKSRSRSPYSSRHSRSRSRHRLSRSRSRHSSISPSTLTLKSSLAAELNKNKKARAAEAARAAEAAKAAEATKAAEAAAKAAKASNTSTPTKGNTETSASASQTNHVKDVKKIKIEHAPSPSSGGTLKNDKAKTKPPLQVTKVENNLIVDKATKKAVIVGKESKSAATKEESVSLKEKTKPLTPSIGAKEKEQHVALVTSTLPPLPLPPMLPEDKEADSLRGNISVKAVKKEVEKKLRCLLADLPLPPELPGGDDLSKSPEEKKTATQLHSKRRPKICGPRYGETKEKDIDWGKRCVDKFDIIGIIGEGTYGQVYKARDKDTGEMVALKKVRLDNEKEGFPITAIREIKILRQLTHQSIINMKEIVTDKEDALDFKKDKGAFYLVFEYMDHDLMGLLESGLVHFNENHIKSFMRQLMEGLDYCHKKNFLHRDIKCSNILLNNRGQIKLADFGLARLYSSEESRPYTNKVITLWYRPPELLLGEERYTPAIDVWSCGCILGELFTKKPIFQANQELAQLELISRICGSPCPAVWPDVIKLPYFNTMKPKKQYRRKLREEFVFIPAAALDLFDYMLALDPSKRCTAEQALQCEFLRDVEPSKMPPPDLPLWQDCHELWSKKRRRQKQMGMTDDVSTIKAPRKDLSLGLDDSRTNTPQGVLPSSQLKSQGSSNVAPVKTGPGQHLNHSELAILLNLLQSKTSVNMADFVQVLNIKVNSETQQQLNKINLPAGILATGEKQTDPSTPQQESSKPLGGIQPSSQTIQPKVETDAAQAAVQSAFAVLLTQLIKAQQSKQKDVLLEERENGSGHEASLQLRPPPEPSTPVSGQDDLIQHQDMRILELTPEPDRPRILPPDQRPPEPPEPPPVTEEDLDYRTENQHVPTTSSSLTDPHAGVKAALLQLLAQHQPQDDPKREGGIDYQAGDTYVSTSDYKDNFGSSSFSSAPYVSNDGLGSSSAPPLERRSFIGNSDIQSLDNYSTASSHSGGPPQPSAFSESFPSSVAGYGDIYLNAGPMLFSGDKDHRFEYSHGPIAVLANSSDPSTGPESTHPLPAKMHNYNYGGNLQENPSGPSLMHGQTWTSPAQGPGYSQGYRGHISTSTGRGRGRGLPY
T2 sequence (O75909 whole entry partner, the tested form may be a part): as the sequence (O75909 whole entry partner, the tested form may be a part) above
Procedure: as §2, §3

[18] = target: T3, CDK9/CycK (Homo sapiens, UniProt P50750); assay: IC50 profiling on top 25 protein kinases; type: biochemical; details: titration from 0.1 nM to 10 000 nM
T3 construct: GST-fusion or His-tag (not given for this kinase); purchased Reaction Biology, Germany; host or cells: Sf9 insect cells or E.coli
T3 sequence (P50750 whole entry, the tested form may be a part): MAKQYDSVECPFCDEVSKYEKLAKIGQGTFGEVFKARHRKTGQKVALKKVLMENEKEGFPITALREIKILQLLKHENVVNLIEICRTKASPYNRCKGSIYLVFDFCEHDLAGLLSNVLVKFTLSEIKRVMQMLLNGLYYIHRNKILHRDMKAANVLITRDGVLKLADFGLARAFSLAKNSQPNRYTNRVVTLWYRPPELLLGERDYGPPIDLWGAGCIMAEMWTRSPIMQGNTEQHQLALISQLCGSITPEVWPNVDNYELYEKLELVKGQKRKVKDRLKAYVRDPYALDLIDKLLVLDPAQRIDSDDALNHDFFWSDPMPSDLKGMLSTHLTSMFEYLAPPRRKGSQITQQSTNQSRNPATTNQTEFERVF
T3 sequence (O75909 whole entry partner, the tested form may be a part): as the sequence (O75909 whole entry partner, the tested form may be a part) above
Procedure: as §2, §3

[19] = target: T4, CDK9/CycT1 (Homo sapiens, UniProt P50750); assay: IC50 profiling on top 25 protein kinases; type: biochemical; details: titration from 0.1 nM to 10 000 nM
T4 construct: GST-fusion or His-tag (not given for this kinase); purchased Reaction Biology, Germany; host or cells: Sf9 insect cells or E.coli
T4 sequence (P50750 whole entry, the tested form may be a part): as the sequence (P50750 whole entry, the tested form may be a part) above
T4 sequence (O60563 whole entry partner, the tested form may be a part): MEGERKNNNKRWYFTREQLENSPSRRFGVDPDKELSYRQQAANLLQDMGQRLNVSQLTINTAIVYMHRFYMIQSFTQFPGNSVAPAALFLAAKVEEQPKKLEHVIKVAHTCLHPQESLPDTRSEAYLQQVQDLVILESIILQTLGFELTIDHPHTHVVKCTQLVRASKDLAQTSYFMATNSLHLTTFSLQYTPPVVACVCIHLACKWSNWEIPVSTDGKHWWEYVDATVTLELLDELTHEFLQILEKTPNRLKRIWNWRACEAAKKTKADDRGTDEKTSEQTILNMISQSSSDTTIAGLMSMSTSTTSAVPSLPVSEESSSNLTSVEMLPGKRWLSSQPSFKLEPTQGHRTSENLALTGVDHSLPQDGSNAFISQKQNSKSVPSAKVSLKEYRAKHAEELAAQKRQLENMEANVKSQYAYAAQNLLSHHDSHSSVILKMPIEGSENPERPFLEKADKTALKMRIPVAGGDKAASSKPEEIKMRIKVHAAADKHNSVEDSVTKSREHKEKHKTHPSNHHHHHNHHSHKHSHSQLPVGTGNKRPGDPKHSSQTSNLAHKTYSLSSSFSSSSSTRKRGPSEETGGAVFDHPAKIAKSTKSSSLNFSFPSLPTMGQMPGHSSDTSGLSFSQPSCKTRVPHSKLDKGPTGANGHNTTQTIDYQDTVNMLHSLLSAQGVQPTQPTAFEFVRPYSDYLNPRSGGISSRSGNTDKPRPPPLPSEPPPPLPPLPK
Procedure: as §2, §3

[20] = in vitro; details: PAMPA, pH 7.4
Procedure: Stock solutions of compounds of the invention were prepared in dimethyl sulfoxide (DMSO) to a final concentration of 10 mM. Each stock solution was diluted to 50 µM in pH 7.4 Prisma HT buffer (pION) in the presence of 10% MeOH (v/v). 200 µL were added to each well of the donor plate in quintuplicate. […] The acceptor filter plate was carefully placed on top of the donor plate to form a "sandwich." The sandwich was incubated at 25°C for 5 h, at 300 rpm. UV-vis spectra of the solutions in the blank, reference, acceptor, and donor plates were measured using a Tecan Infinite 200 PRO M Nano Plus microplate reader.

N[C@H]1CC[C@H](Nc2nc(NCc3ccc(-c4ccccn4)cc3)n3ncc(Br)c3n2)CC1 [Compound 2384]
IC50 [1]: 0.94 nM | IC50 [2]: 0.25 nM | IC50 [3]: 0.38 nM | IC50 [4]: 0.53 nM | IC50 [5]: 0.76 nM | IC50 [6]: 0.73 nM | IC50 [7]: 0.56 nM | IC50 [8]: 1.46 nM | IC50 [9]: 6.64 nM | IC50 [10]: 1.19 nM | IC50 [11]: 0.22 nM | IC50 [12]: 0.38 nM | IC50 [13]: 3.42 nM | IC50 [14]: 2.24 nM | in vitro cytotoxicity potency [15]: more potent compared to its isopropyl counterpart; also recorded: drastically improved low nanomolar potencies | IC50 [16]: < 25 nM | IC50 [17]: < 25 nM | IC50 [18]: < 25 nM | IC50 [19]: < 25 nM | Papp at 5 h, 50 µM [20]: 84 ×10⁻⁶ cm/s
